# Measurements as given in patent US7833795B2, “Assessment of cardiovascular risk using isoprostane biomarkers and COX-2 selective inhibitors” (The Trustees of the University of Pennsylvania, priority 2004, dated 2010).
# Assays:
# Male Fisher 344 rats [1] = assay: Plasma MDA by GC/NICI-MS; format: in vivo, rat; conditions: indomethacin pretreatment; controls at 7 and 16 h, lower CCl4 dose at 2 and 16 h
# Procedure: (§1) Animals and treatment protocol: Male Fisher 344 rats (260-280 g) obtained from Charles River Laboratories (Raleigh, N.C.) were used in all experiments. The animals were housed three to a cage. Autoclaved hardwood bedding was used in solid-bottom polycarbonate cages with filter tops. Animal rooms were maintained at 20-25° C. with 35-70% relative humidity with alternating 12-hour light and dark cycles. The rats had free access to deionized, reverse-osmosis-treated water and received autoclaved NIH 31 rodent chow (Zeigler Bros., Gardners, Pa.) ad libitum. For all experiments, rats were fasted overnight and then administered intraperitoneal injections of carbon tetrachloride in canola oil. Control rats received an equal volume of canola oil. Fasting continued throughout the experiment. Rats were anesthetized with Nembutal (0.1 ml/100 g body weight) and 5 ml blood was removed from the dorsal aorta proximal to its bifurcation into the common iliac arteries.
# (§2) Indomethacin pretreatment: The indomethacin regimen used has been previously shown to inhibit COX activity in rats by 90% (dose of 5 mg/kg s.c. 24 hours, 12 hours, and 2 hours prior to the injection of CCl4) (Jackson, 1989, J. Pharmacol. Exp. Ther. 250: 9-21). An additional booster dose was injected 8 hours after the last injection of CCl4 for the measurements performed 16 hours after treatment with CCl4.
# (§3) Carbon tetrachloride (CCL4) treatment: Animals from each of the three dose groups (Control-canola oil, 120 mg/kg CCl4 i.p. and 1200 mg/kg CCl4 i.p.) were investigated at three time points (2, 7, and 16 hours after CCl4 injection). Indomethacin-pretreated rats were also investigated at the same three time points, and the meclofenamic acid-pretreated rats were investigated at one time point (7 hours). Each group consisted of five rats for each analysis, except the meclofenamic acid pretreatment group which consisted of six rats. Animal treatment, sample preparation, assessment of liver histology and serum enzyme activities are described elsewhere (Kadiiska et al., 2000, Free Radic. Biol. Med. 28: 838-845; Jackson, 1989, J. Pharmacol. Exp. Ther. 250: 9-21) and were carried out at NIEHS, Research Triangle Park, N.C.
# (§4) Plasma sample preparation: Blood (5 ml) was drawn through single draw Vacutainer® needles (21 Gauge) into open Vacutainer® blood collection tubes containing heparin. The tubes were gently inverted 2-3 times for mixing and immediately placed on ice. Blood was centrifuged (2,000 rpm for 10 minutes at 4° C.) no more than 30 minutes after collection, and the plasma was collected, frozen on dry ice and stored at −70° C.
# Plasma MDA concentrations were also measured by using gas chromatography/negative ion chemical ionization mass spectroscopy (GC/NICI-MS) as described by Yeo et al. (Yeo et al., 1994, Anal. Biochem. 220: 391-396). The stable isotope internal standard [^2H2] MDA and an antioxidant (2,6-tert-butyl-4-methylphenol) were added to the plasma samples. The samples were then incubated at room temperature in 6.6 mol H2SO4 for 10 minutes to hydrolyze the aldehydes from the proteins. Plasma MDA was converted to a stable pentafluorophenyl hydrazine derivative which was quantified by using the GC-MS in the negative chemical ionization mode. The assay was performed at Children's Hospital Oakland Research Institute, Oakland, Calif.
# Male Fisher 344 rats [2] = assay: Urinary MDA by HPLC with spectrophotometry; format: in vivo, rat; conditions: for urinary MDA: meclofenamic acid pretreatment
# Procedure: as §1, §2
# (§5) Meclofenamic acid pretreatment: Meclofenamic acid was injected at a dose of 5 mg/kg i.p. 12 h and 2 h prior to the injection of CCl4.
# as §3
# (§6) Urine sample preparation: The day prior to treatment, both experimental and control animals were placed in stainless steel metabolic cages especially designed for urine collection. For Experimental Example 2, animals were placed in metabolic cages immediately after the last injection of indomethacin or meclofenamic acid. Urine was collected (in dark vials) from the animals during the following intervals: 2 to 7 hours and 7 to 16 hours after CCl4 or canola oil (controls) treatment. Urine samples from indomethacin-pretreated rats were collected from 2 to 7 hours and 7 to 16 hours after the injection of CCl4, whereas samples from meclofenamic-acid-pretreated rats were collected only from 2 to 7 hours after the injection. All urine samples were immediately frozen on dry ice and stored at −70° C.
# Urinary MDA was analyzed using high pressure liquid chromatography (HPLC). To 500 μl urine samples, 25 μl BHT and 750 μl 0.5% TBA solution were added, in this order. Samples were incubated at 60° C. for 60 minutes. After cooling, chloroform (750 μl) was added and mixed well. Following centrifugation, the aqueous layer was removed and used for HPLC analysis (column […]; mobile phase, 6:4(v/v) 0.04 M acetate buffer (pH 5.5)/MeOH; detection, 532 nm). The procedure was developed and performed by OXIS Research, Portland, Oreg.
# Male Fisher 344 rats [3] = assay: Urinary free plus esterified 8-iso-PGF2α by immunoassay; format: in vivo, rat
# Procedure: as §1, §2, §5, §3, §6
# Urinary 8-iso-PGF2α concentrations were measured by the competitive immunoassay procedure in which 8-iso-PGF2α conjugated to alkaline phosphatase competed with the test analyte for antibody specific for the isoprostane. The anti-8-iso-PGF2α antibody was captured by anti-Fc antibodies immobilized on a microtiter plate. The assay was developed by Assay Designs, Inc., Ann Arbor, Mich. and performed at OXIS Research, Portland, Oreg.
# In an additional method not recited in Example 1, an immunoassay was used to measure the sum of free plus esterified 8-iso-PGF2α. The immunoassay used anti-8-iso-PGF2α antibody was developed by Assay Designs, Inc., Ann Arbor, Mich., and performed at Oxis Research, Portland, Oreg.
# COX = conditions: 5 mg/kg s.c. 24, 12 and 2 hours prior to CCl4; cited from earlier work
# Male Fisher 344 rats [4] = assay: Plasma MDA, TBA colorimetric assay with 3rd derivative spectroscopy; format: in vivo, rat; conditions: indomethacin pretreatment
# Procedure: as §1, §3, §4
# Two colorimetric-based assays, using third derivative spectroscopy, were also used to measure MDA in plasma. The TBA colorimetric assay is designed to measure free MDA and MDA-protein adducts (Schiff base), and therefore includes mild acid hydrolysis. The Bioxytech® LPO-586™ colorimetric assay is based upon the reaction of the chromogenic reagent N-methyl-2-phenylindole (NMPI) with MDA at 45° C. One molecule of free MDA combines with 2 molecules of the chromogenic agent to produce a stable chromophore with a maximal absorbance at 586 nm. In both assays, the concentration of MDA was determined with 3rd derivative spectroscopy. Both assays were developed by OXIS Research Inc., Portland, Oreg., and were performed at OXIS and at Loyola University Medical Center, Maywood, Ill.
# Male Fisher 344 rats [5] = assay: Plasma free plus esterified 8-iso-PGF2α by GC/MS; format: in vivo, rat
# Procedure: as §1, §2, §5, §3, §4
# Measurement of the sum of free plus esterified 8-iso-PGF2α in plasma were performed using an improved GC/MS-based analysis for the quantitation of this isoprostane in plasma. A detailed protocol for this extraction and quantitation has been published (Parker et al., 2001, Mol. Biotechnol. 18: 105-118). Measurements of the sum of free plus esterified 8-iso-PGF2α in plasma were performed at NIEHS, Research Triangle Park, N.C.
# Male Fisher 344 rats [6] = assay: Urinary 8,12-iso-iPF2α-VI by LC/MS/MS; format: in vivo, rat; conditions: for urinary 8,12-iso-iPF2α-VI, pretreated vs non-pretreated: indomethacin pretreatment
# Procedure: as §1, §2, §5, §3, §6
# Analysis of 8,12-iso-iPF2α-VI, which is, along with its epimer 5-epi-8,12-iso-iPF2α-VI, the most prevalent PGF-ring isoprostane in human urine, was accomplished by addition of a tetradeuterated analog, solid phase extraction and quantitation using liquid chromatography and tandem mass spectroscopy (LC/MS/MS) (Li et al., 1999, Proc. Natl. Acad. Sci. USA 96: 13381-13386). The measurements were performed at the University of Pennsylvania, Philadelphia, Pa.
# Male Fisher 344 rats [7] = assay: Plasma free 8-iso-PGF2α by GC/NICI-MS; format: in vivo, rat; conditions: meclofenamic acid 5 mg/kg i.p. pretreatment; only higher CCl4 dose, 7 h
# Procedure: as §1, §2, §5, §3, §4
# Two slightly different methods developed in two different laboratories were used to measure the effect of CCl4 on the plasma levels of free 8-iso-PGF2α, and the sum of free plus esterified 8-iso-PGF2α (also known as 8-epi-PGF2α and iPF2α-III and 15-F2t-IsoP). Free 8-iso-PGF2α concentrations in plasma were determined by gas chromatography/negative ion chemical ionization mass spectrometry (GC/NICI-MS) by the method of Morrow et al. (1999, Methods Enzymol. 300: 3-12). Briefly, [2H4] 8-iso-PGF2α internal standard was added to plasma and F2-isoprostanes were extracted with a C18 Sep-Pak® Cartridge (Waters Associates, Milford, Mass.). The extracted F2-isoprostanes were converted to pentafluorobenzyl ester and purified by TLC after which they were converted to a trimethylsilyl ether derivative and subsequently analyzed by GC-MS. The assay was developed and performed at Vanderbilt University, Nashville, Tenn.
# Male Fisher 344 rats [8] = assay: Urinary free 8-iso-PGF2α by radioimmunoassay; format: in vivo, rat
# Procedure: as §1, §5
# as §3, with “N.C. […]” for “N.C.”
# In Experimental Example 2, urine samples were also analyzed for free 8-iso-PGF2α, without any extraction, by radioimmunoassay (Basu, 1998, Prost. Leuk. Ess. Fatty Acids. 58: 319-325). […]
# [9] = meclofenamic acid pretreatment, 7 h
SMILES,"plasma MDA (GC/MS), pretreated vs non-pretreated rats (Male Fisher 344 rats [1])","urinary MDA, pretreated vs non-pretreated (Male Fisher 344 rats [2]; indomethacin pretreatment, controls and low-dose CCl4, both time points)","urinary free plus esterified 8-iso-PGF2α (immunoassay), pretreated vs non-pretreated (Male Fisher 344 rats [3]; indomethacin pretreatment, controls at 7 h, higher CCl4 dose at both time points)",inhibition of COX activity in rats (COX),"plasma MDA (third derivative spectroscopy), pretreated vs non-pretreated (Male Fisher 344 rats [4])","plasma free plus esterified 8-iso-PGF2α, pretreated vs non-pretreated (Male Fisher 344 rats [5]; indomethacin pretreatment, only higher CCl4 dose at 2 and 7 h)","urinary 8,12-iso-iPF2α-VI, pretreated vs non-pretreated (Male Fisher 344 rats [6]; controls, earlier time point)","urinary 8,12-iso-iPF2α-VI, pretreated vs non-pretreated (Male Fisher 344 rats [6]; higher dose CCl4)","urinary 8,12-iso-iPF2α-VI, pretreated vs non-pretreated (Male Fisher 344 rats [6]; low dose CCl4)","urinary MDA (Male Fisher 344 rats [2]; higher dose of CCl4, 7 h)","urinary MDA (Male Fisher 344 rats [2]; low dose of CCl4, 7 h)","urinary free plus esterified 8-iso-PGF2α (immunoassay), pretreated vs non-pretreated (Male Fisher 344 rats [3]; meclofenamic acid pretreatment, high CCl4 dose, 7 h)","plasma free 8-iso-PGF2α, pretreated vs non-pretreated (Male Fisher 344 rats [7])","plasma free plus esterified 8-iso-PGF2α, effect compared with that on free 8-iso-PGF2α (Male Fisher 344 rats [5]; [9])","CCl4-induced urinary 8,12-iso-iPF2α-VI (Male Fisher 344 rats [6]; [9])","basal urinary free 8-iso-PGF2α (radioimmunoassay) vs control group (Male Fisher 344 rats [8]; meclofenamic acid-treated rats, no CCl4)","urinary free 8-iso-PGF2α (radioimmunoassay) (Male Fisher 344 rats [8]; meclofenamic pretreatment, both doses of CCl4, 7 h)"
"COc1ccc2c(c1)c(CC(=O)O)c(C)n2C(=O)c1ccc(Cl)cc1 [indomethacin, 1-[p-chlorobenzoyl]-5-methoxy-2-methylindole-3-acetic acid]",statistically significant decrease,increase in MDA excretion,Suppression,90%,similarly decreased,statistically significant suppression,increased,markedly inhibited,no effect,–,–,–,–,–,–,–,–
Cc1ccc(Cl)c(Nc2ccccc2C(=O)O)c1Cl [meclofenamic acid],–,–,–,–,–,–,–,–,–,significant inhibition,increased,significant decrease,significant decrease,similar,increased,lower basal levels,increased
